Experimental findings from ChEMBL document CHEMBL2021880, “An Invitation to Open Innovation in Malaria Drug Discovery: 47 Quality Starting Points from the TCAMS” (ACS Med Chem Lett, 2011) are described below.

What is called IC50 is the concentration that inhibits the measured activity by half.

Data set [1] has as its system Plasmodium falciparum. The data set can be described thus: Antimalarial activity against Plasmodium falciparum 3D7 A infected in red blood cells assessed as inhibition of [3H]hypoxanthine incorporation after 24 hrs by scintillation counting. Type of data set: functional, organism-based.
Data set [2] is described as follows: Clearance in mouse microsomes at 0.5 uM. Type of data set: ADME, Microsome.
The nature of data set [3]: Clearance in human microsomes at 0.5 uM. Type of data set: ADME, Microsome.
Data set [4] addresses Voltage-gated inwardly rectifying potassium channel KCNH2 (Homo sapiens, UniProt Q12809). The data set is described as follows: Displacement of Cy3b-dofetilide from human ERG expressed in CHO cells by fluorescence polarization assay. For orientation: Polarisation of emitted light reports the rotation of a fluorescent probe.

Sequence of Voltage-gated inwardly rectifying potassium channel KCNH2 (Q12809 whole entry): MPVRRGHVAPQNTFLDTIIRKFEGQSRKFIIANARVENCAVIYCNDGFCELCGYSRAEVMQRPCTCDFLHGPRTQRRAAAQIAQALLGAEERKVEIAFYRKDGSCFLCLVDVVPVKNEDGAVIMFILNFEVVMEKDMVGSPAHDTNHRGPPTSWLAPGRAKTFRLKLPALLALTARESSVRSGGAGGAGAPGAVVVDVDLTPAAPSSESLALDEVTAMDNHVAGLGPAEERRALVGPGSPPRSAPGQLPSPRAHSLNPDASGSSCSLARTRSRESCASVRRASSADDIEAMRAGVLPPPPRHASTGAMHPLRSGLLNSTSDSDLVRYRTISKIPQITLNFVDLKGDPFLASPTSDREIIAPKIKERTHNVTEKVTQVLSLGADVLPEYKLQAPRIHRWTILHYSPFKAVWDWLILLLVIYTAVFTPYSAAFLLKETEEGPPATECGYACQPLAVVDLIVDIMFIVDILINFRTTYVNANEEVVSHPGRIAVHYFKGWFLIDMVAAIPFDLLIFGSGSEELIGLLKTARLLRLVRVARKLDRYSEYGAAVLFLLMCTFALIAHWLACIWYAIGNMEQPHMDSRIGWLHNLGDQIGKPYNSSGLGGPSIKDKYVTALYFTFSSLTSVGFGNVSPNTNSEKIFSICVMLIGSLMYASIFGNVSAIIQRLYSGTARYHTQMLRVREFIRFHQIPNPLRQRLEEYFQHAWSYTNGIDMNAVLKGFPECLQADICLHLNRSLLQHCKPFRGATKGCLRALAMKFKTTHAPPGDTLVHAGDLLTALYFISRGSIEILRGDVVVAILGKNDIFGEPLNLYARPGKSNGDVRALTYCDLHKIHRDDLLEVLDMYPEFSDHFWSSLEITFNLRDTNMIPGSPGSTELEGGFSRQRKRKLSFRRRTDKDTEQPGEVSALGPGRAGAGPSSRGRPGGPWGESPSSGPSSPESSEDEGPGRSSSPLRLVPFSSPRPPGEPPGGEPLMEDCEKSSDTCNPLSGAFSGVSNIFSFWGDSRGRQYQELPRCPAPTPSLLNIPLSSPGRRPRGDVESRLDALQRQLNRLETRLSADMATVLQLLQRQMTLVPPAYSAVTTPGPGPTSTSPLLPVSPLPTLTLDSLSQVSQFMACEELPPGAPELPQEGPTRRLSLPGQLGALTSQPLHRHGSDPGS

On to `O=C(Nc1cc(C(F)(F)F)ccc1-n1cncn1)C1(c2ccccc2)CC1`, for which, in data set [1], the IC50 was found to be 30 nM. For the same compound, the figures for the CL in data set [2] and in data set [3] were under 0.8 mL/min/g and under 0.3 mL/min/g, respectively.
As for `CN(C)CCNC(=O)c1cc2c(-c3ccc(Cl)cc3)nn(C)c2s1`, the IC50 in data set [1] was determined as 950 nM. Moreover, the CL in data set [2] turned out to be 4 mL/min/g; in data set [3], 0.3 mL/min/g. Besides, the INH in data set [4] amounted to 6.3 µM.
On to `COc1cc2c(cc1C(F)(F)F)N(C(=O)Nc1cc(OC(F)(F)F)cc(-c3cccnc3)c1)CC2`, for which, in data set [1], the IC50 was found to be 80 nM and the XC50 was 40 nM. The CL in data set [2] is under 0.3 mL/min/g. Also, the CL in data set [3] is under 0.3 mL/min/g. Also, in data set [4], the INH was over 15 µM.
`Cc1cc(C(=O)NC2CCN(CC3(c4ccc(Cl)cc4)CCC3)CC2)on1`: in data set [1], the half-maximal inhibitory concentration (IC50) is 80 nM and the XC50 is 90 nM. This compound also gave a CL in data set [2] of 5.6 mL/min/g. The compound further showed a CL in data set [3] of 18.8 mL/min/g.
As for `CC(C)(C)c1cc(C(=O)N2CCN(c3ncccc3C(F)(F)F)CC2)n(Cc2ccccc2)n1`, in data set [1], the IC50 was determined as 100 nM. Moreover, the CL in data set [2] was over 30 mL/min/g; in data set [3], 12.7 mL/min/g. The INH in data set [4] was over 50 µM.
